The values that follow come from patent publication US20060069123A1, “Substituted dipiperidine CCR2 antagonists” (priority 2004, published 2006).

Molecules are shown by their SMILES. Like-named read-outs stand apart in the source and are kept apart here.

Experiment [1] has as its system THP-1 cells. In words: MCP-1 Induced Chemotaxis in THP-1 Cells. The class given is cell-based. As to conditions: read-out: Inhibition of MCP-1 Induced Chemotaxis IC50. The protocol:
MCP-1 Induced Chemotaxis in THP-1 Cells
MCP-1 induced chemotaxis was run in a 24-well chemotaxis chamber. MCP-1 (0.01 μg/mL) was added to the lower chamber and 100 μL of THP-1 cells (1×10^7 cell/mL) was added to the top chamber. Varying concentrations of test compound were added to the top and bottom chambers. Cells were allowed to chemotax for 3 hours at 37° C. and 5% CO2. An aliquot of the cells that had migrated to the bottom chamber was taken and counted then compared to vehicle.

The subject of experiment [2] is THP-1 cells.
The next experiment deals with T1, CCR2 (Homo sapiens, UniProt P41597).
T1 sequence (P41597 1-360 isoform P41597-2): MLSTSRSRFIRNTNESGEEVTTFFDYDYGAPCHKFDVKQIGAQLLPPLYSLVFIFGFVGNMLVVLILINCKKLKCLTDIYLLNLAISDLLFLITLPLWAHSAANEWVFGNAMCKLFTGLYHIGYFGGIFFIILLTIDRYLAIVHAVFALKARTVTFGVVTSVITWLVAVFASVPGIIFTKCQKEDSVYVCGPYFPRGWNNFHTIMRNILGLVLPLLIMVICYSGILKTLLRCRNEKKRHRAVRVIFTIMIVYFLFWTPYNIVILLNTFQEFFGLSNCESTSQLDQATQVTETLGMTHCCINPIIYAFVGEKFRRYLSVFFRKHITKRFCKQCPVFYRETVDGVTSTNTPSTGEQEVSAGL
As to conditions: for Inhibition of MCP-1 Binding, percent inhibition: test concentration of 25 μM, IC50 not obtained.

[3] abbreviates: Homo sapiens, THP-1 cells, MCP-1 0.01 μg/mL, 3 hours.
Setting [4] is: Homo sapiens, THP-1, read-out: Inhibition of MCP-1 Induced Calcium Ion Influx IC50.
The mark [5] stands for this setting: THP-1 cells, MCP-1 0.01 μg/mL, 3 hours.
Setting [6] is: read-out: Inhibition of MCP-1 Induced Calcium Ion Influx IC50, THP-1 cells, 0.2 μM MCP-1, FLIPR.

The IC50 is the concentration that gives 50% inhibition. `O=C(/C=C/c1cc(F)c(F)c(F)c1)N1CCC([C@H](CO)N2CCC(c3c[nH]c4ccccc34)CC2)CC1` [Cpd 188, (2E)-1-(4-{(1R)-2-hydroxy-1-[4-(1H-indol-3-yl)-piperidin-1-yl]-ethyl}-piperidin-1-yl)-3-(3,4,5-trifluoro-phenyl)-propenone]: the 50% inhibitory concentration (IC50) in the experiment on THP-1 cells [1] (setting [3]) turned out to be 20 nM; in the experiment on THP-1 cells [2] (setting [4]), 10 nM; on CCR2, 29.5 nM.
With `COc1ccc2[nH]cc(C3CCN(C(CO)C4CCN(C(=O)/C=C/c5cc(F)c(F)c(F)c5)CC4)CC3)c2c1` (stereo not drawn) [Cpd 166, (2E)-1-(4-{2-hydroxy-1-[4-(5-methoxy-1H-indol-3-yl)-piperidin-1-yl]-ethyl}-piperidin-1-yl)-3-(3,4,5-trifluoro-phenyl)-propenone], the IC50 with THP-1 cells [1] (setting [3]) was determined as 30 nM; in the experiment with THP-1 cells [2] (setting [4]), 8 nM; at CCR2 it was 6 nM.
Regarding `O=C(O)C(C1CCN(C(=O)Nc2cccc(C(F)(F)F)c2)CC1)N1CCC(c2c[nH]c3ccccc23)CC1` (stereo not drawn) [Cpd 97, [4-(1H-indol-3-yl)-piperidin-1-yl]-[1-(3-trifluoromethyl-phenylcarbamoyl)-piperidin-4-yl]-acetic acid], the results for the IC50 with THP-1 cells [1] (setting [3]), in the experiment on THP-1 cells [2] (setting [4]) and at CCR2 were 230 nM, 970 nM and 250 nM, respectively.
The like results for `O=C(/C=C/c1cc(F)c(F)c(F)c1)N1CCC(C(CO)N2CCC(c3ccc4c(c3)OCO4)CC2)CC1` (stereo not drawn) [Cpd 189, (2E)-1-{4-[1-(4-benzo[1,3]dioxol-5-yl-piperidin-1-yl)-2-hydroxy-ethyl]-piperidin-1-yl}-3-(3,4,5-trifluoro-phenyl)-propenone] were, in that order, 720 nM, 160 nM and 170 nM.
The like results for `COC(=O)c1ccc2[nH]cc(C3CCN(C(C(=O)O)C4CCN(C(=O)/C=C/c5cc(F)c(F)c(F)c5)CC4)CC3)c2c1` (stereo not drawn) [Cpd 146, 3-[1-(carboxy-{1-[(2E)-3-(3,4,5-trifluoro-phenyl)-acryloyl]-piperidin-4-yl}-methyl)-piperidin-4-yl]-1H-indole-5-carboxylic acid methyl ester] were, in that order, 53 nM, 50 nM and 7 nM.
As for `Cc1ccc(NC(=O)N2CCC(C(C(=O)O)N3CCC(c4c[nH]c5ccccc45)CC3)CC2)cc1C` (stereo not drawn) [Cpd 100, [1-(3,4-dimethyl-phenylcarbamoyl)-piperidin-4-yl]-[4-(1H-indol-3-yl)-piperidin-1-yl]-acetic acid], the concentration for half-maximal inhibition (IC50) in the experiment on THP-1 cells [1] (Homo sapiens, THP-1, 3 h) is 940 nM; with THP-1 cells [2] (setting [4]), 480 nM.
`COc1ccc2c(C3CCN(C(CO)C4CCN(C(=O)/C=C/c5cc(F)c(F)c(F)c5)CC4)CC3)c[nH]c2c1` (stereo not drawn) [Cpd 167, (2E)-1-(4-{2-hydroxy-1-[4-(6-methoxy-1H-indol-3-yl)-piperidin-1-yl]-ethyl}-piperidin-1-yl)-3-(3,4,5-trifluoro-phenyl)-propenone]: the half-maximal inhibitory concentration (IC50) with THP-1 cells [1] (setting [5]) and in the experiment on THP-1 cells [2] (setting [6]) was 30 nM in each case.
For the compound `COc1ccc2c(C3CCN(C(CO)C4CCN(C(=O)/C=C/c5cc(F)c(F)c(F)c5)CC4)CC3)c[nH]c2c1` (stereo not drawn) [Cpd 132, (2E)-1-(4-{2-hydroxy-1-[4-(6-methoxy-1H-indol-3-yl)-piperidin-1-yl]-ethyl}-piperidin-1-yl)-3-(3,4,5-trifluoro-phenyl)-propenone], the concentration for half-maximal inhibition (IC50) in the experiment with THP-1 cells [1] (setting [5]) stood at 70 nM; in the experiment on THP-1 cells [2] (setting [6]), 3 nM.
For the compound `O=C(/C=C/c1ccc(Cl)c(Cl)c1)N1CCC(C(CO)N2CCC(c3c[nH]c4ncccc34)CC2)CC1` (stereo not drawn) [Cpd 208, (2E)-3-(3,4-dichloro-phenyl)-1-(4-{2-hydroxy-1-[4-(1H-pyrrolo[2,3-b]pyridin-3-yl)-piperidin-1-yl]-ethyl}-piperidin-1-yl)-propenone], the half-maximal inhibitory concentration (IC50) with THP-1 cells [1] (Homo sapiens, THP-1, 3 h, THP-1 cells, MCP-1 0.01 μg/mL, 3 hours) worked out at 13 nM; in the experiment with THP-1 cells [2] (Homo sapiens, THP-1, read-out: Inhibition of MCP-1 Induced Calcium Ion Influx IC50, THP-1 cells, 0.2 μM MCP-1, FLIPR), 0.8 nM.
As for `O=C(/C=C/c1cccc(C(F)(F)F)c1)N1CCC(C(CO)N2CCC(c3c[nH]c4ccccc34)CC2)CC1` (stereo not drawn) [Cpd 119, (2E)-1-(4-{2-hydroxy-1-[4-(1H-indol-3-yl)-piperidin-1-yl]-ethyl}-piperidin-1-yl)-3-(3-trifluoromethyl-phenyl)-propenone], the values for the IC50 in the experiment on THP-1 cells [1] (setting [3]) and in the experiment with THP-1 cells [2] (setting [4]) were 10 nM and 8 nM, respectively.
Take `COC(=O)C(C1CCN(C(=O)/C=C/c2cc(F)c(F)c(F)c2)CC1)N1CCC(c2c[nH]c3ccccc23)CC1` (stereo not drawn) [Cpd 87, [4-(1H-indol-3-yl)-piperidin-1-yl]-{1-[(2E)-3-(3,4,5-trifluoro-phenyl)-acryloyl]-piperidin-4-yl}-acetic acid methyl ester]: the IC50 in the experiment with THP-1 cells [1] (Homo sapiens, THP-1, 3 h) stood at 1000 nM; with THP-1 cells [2] (setting [4]), 360 nM.
With `O=C(/C=C/c1cc(F)cc(F)c1)N1CCC(C(CO)N2CCC(c3nc4cc(Cl)c(Cl)cc4[nH]3)CC2)CC1` (stereo not drawn) [Cpd 256, (2E)-1-(4-{1-[4-(5,6-dichloro-1H-benzoimidazol-2-yl)-piperidin-1-yl]-2-hydroxy-ethyl}-piperidin-1-yl)-3-(3,5-difluoro-phenyl)-propenone], the half-inhibitory concentration (IC50) with THP-1 cells [2] (setting [6]) amounted to 11000 nM. Besides, the “Inhibition of MCP-1 Binding, percent inhibition” value at CCR2 is on record as 25%.
With `O=C(O)[C@@H](C1CCN(C(=O)/C=C/c2cc(F)c(F)c(F)c2)CC1)N1CCC(c2c[nH]c3ccccc23)CC1` [Cpd 14], the IC50 in the experiment with THP-1 cells [1] (Homo sapiens, THP-1, 3 h) turned out to be 70 nM; in the experiment with THP-1 cells [2] (setting [4]), 1130 nM.
Regarding `COc1ccc(C2CCN(C(CO)C3CCN(C(=O)C#Cc4cc(F)c(F)c(F)c4)CC3)CC2)cc1` (stereo not drawn) [Cpd 253, 1-(4-{2-hydroxy-1-[4-(4-methoxy-phenyl)-piperidin-1-yl]-ethyl}-piperidin-1-yl)-3-(3,4,5-trifluoro-phenyl)-propynone], the IC50 in the experiment with THP-1 cells [2] (setting [6]) stood at 3900 nM. Moreover, on CCR2, the “Inhibition of MCP-1 Binding, percent inhibition” value was found to be 42%.
Take `CC(=O)NCC(C1CCN(C(=O)/C=C/c2cc(F)c(F)c(F)c2)CC1)N1CCC(c2c[nH]c3ccccc23)CC1` (stereo not drawn) [Cpd 213, N-(2-[4-(1H-indol-3-yl)-piperidin-1-yl]-2-{1-[(2E)-3-(3,4,5-trifluoro-phenyl)-acryloyl]-piperidin-4-yl}-ethyl)-acetamide]: the IC50 with THP-1 cells [1] (setting [3]) was 170 nM; with THP-1 cells [2] (setting [4]), 90 nM.
As for `CC(=O)NCC(C1CCN(C(=O)/C=C/c2cccc(C(F)(F)F)c2)CC1)N1CCC(c2c[nH]c3ccccc23)CC1` (stereo not drawn) [Cpd 218], the concentration for half-maximal inhibition (IC50) in the experiment on THP-1 cells [2] (setting [4]) worked out at 1900 nM; against CCR2, 370 nM.
Regarding `O=C(C=Cc1cc(F)c(F)c(F)c1)N1CCC(C(CO)N2CCC(c3ccc(Cl)cc3)CC2)CC1` (stereo not drawn) [Cpd 246, (2E)-1-(4-{1-[4-(4-chloro-phenyl)-piperidin-1-yl]-2-hydroxy-ethyl}-piperidin-1-yl)-3-(3,4,5-trifluoro-phenyl)-propenone], the IC50 came to 20 nM in the experiment on THP-1 cells [2] (setting [4]) and 70 nM at CCR2.
On to `OCC(C1CCN(C(=S)Nc2cc(F)cc(F)c2)CC1)N1CCC(c2c[nH]c3ccccc23)CC1` (stereo not drawn) [Cpd 124, 4-{2-hydroxy-1-[4-(1H-indol-3-yl)-piperidin-1-yl]-ethyl}-piperidine-1-carbothioic acid (3,5-difluoro-phenyl)-amide], for which the IC50 in the experiment with THP-1 cells [2] (setting [4]) was 70 nM; against CCR2, 130 nM.
The matching figures for `O=C(C=Cc1ccc(Cl)c(Cl)c1)N1CCC(C(CO)N2CCC(c3ccc(Cl)cc3)CC2)CC1` (stereo not drawn) [Cpd 244, (2E)-1-(4-{1-[4-(4-chloro-phenyl)-piperidin-1-yl]-2-hydroxy-ethyl}-piperidin-1-yl)-3-(3,4-dichloro-phenyl)-propenone]: 80 nM and 260 nM.
`OCC(C1CCN(C(=S)Nc2cccc(C(F)(F)F)c2)CC1)N1CCC(c2c[nH]c3ccccc23)CC1` (stereo not drawn) [Cpd 120, 4-{2-hydroxy-1-[4-(1H-indol-3-yl)-piperidin-1-yl]-ethyl}-piperidine-1-carbothioic acid (3-trifluoromethyl-phenyl)-amide]: the IC50 came out at 1 nM in the experiment with THP-1 cells [2] (setting [4]) and 80 nM against CCR2.
For orientation: inhibition means the percentage by which the read-out fell short of the control. As for `COc1ccc(C2CCN(C(CO)C3CCN(C(=O)c4cc5cc(Cl)ccc5o4)CC3)CC2)cc1` (stereo not drawn) [Cpd 160, (5-chloro-benzofuran-2-yl)-(4-{2-hydroxy-1-[4-(4-methoxy-phenyl)-piperidin-1-yl]-ethyl}-piperidin-1-yl)-methanone], the inhibition at 25 µM was found to be 33% in the experiment on THP-1 cells [2] (Homo sapiens, THP-1, read-out: Inhibition of MCP-1 Induced Calcium Ion Influx, percent inhibition) and 56% on CCR2 (read-out: Inhibition of MCP-1 Binding, percent inhibition).
Consider `O=CNCC(C1CCN(C(=O)/C=C/c2cc(F)c(F)c(F)c2)CC1)N1CCC(c2c[nH]c3ccccc23)CC1` (stereo not drawn) [Cpd 220], for which the IC50 worked out at 960 nM in the experiment with THP-1 cells [2] (setting [4]) and 440 nM against CCR2.
With `O=C(O)C(C1CCN(C(=O)Nc2ccc(Cl)cc2)CC1)N1CCC(c2c[nH]c3ccccc23)CC1` (stereo not drawn) [Cpd 88, [1-(4-chloro-phenylcarbamoyl)-piperidin-4-yl]-[4-(1H-indol-3-yl)-piperidin-1-yl]-acetic acid], the IC50 in the experiment on THP-1 cells [1] (setting [3]) was 240 nM; with THP-1 cells [2] (setting [4]), 410 nM.
